From patent US9771326B2, “S1P and/or ATX modulating agents” (BIOGEN MA INC., priority 2012, dated 2017)

Target: S1P3 (Homo sapiens, UniProt Q99500)
Assay: S1P receptor calcium flux assay, agonist format (S1P3)
Format: cell-based
Settings: FLIPR TETRA
Text: (§1) S1P Receptor Activity Assays Agonist percentage activation determinations were obtained by assaying sample compounds and referencing the Emax control for each receptor profiled. Antagonist percentage inhibition determinations were obtained by assaying sample compounds and referencing the control EC80 wells for each receptor profiled. The samples were run using a “Single Addition” assay protocol for the agonist and antagonist assay run. The protocol design was as follows: Compound Preparation Master stock solution: Unless specified otherwise, all sample compounds were diluted in 100% anhydrous DMSO including all serial dilutions. All control wells contained identical solvent final concentrations as did the sample compound wells. Compound plate for assay: The sample compounds were transferred from a master stock solution into a daughter plate that was used in the assay. Each sample compound was diluted into assay buffer (1×HBSS with 20 mM HEPES and 2.5 mM Probenecid) at an appropriate concentration to obtain final concentrations. […] Assay was read for 180 seconds using the FLIPR^TETRA (This assay run added sample compounds and reference agonist to respective wells). […] Once baseline corrections were processed, maximum fluorescence values were exported and data manipulated to calculate percentage activation, percentage inhibition and Z′.

S1P3, sequence (Q99500 whole entry): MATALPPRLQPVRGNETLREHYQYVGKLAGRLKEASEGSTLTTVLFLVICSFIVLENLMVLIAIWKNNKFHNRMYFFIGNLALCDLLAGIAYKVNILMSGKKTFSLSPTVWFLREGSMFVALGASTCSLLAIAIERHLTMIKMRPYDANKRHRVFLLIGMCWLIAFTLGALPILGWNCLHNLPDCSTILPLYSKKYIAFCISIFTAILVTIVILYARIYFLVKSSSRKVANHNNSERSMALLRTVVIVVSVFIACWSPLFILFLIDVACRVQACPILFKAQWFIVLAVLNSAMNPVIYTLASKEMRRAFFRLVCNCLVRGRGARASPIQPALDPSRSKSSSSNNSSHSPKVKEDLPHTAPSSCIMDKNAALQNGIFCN

| EC50 [nM] | SMILES |
| --- | --- |
| 50 to 5000 | CC(C)(C)[C@H]1CC[C@H](Oc2cnc(-c3cccc(CNCCC(=O)O)c3)nc2)CC1 [Example 50, 3-(3-(5-(trans-4-tert-Butylcyclohexyloxy)pyrimidin-2-yl)benzylamino)propanoic acid] |

Test system: A2B5+ OPCs
Assay: OPC differentiation assay
Format: cell-based, Sprague Dawley rats
Settings: 72 h; rat OPCs in CNTF/T3 media, 3-day incubation, MSD analysis; read-out: positive in the OPC assay (concentration)
Experimental: OPC Differentiation Assay
Enriched populations of oligodendrocytes were grown from post-natal day 2 (P2) female Sprague Dawley rats. The forebrain was dissected out and placed in Hank's buffered saline solution (HBSS; Invitrogen, Grand Island, N.Y.). The tissue was cut into 1 mm fragments and incubated at 37° C. for 15 minutes in 0.01% trypsin and 10 μg/mL DNase. Dissociated cells were plated on poly-L-lysine-coated T75 tissue culture flasks and grown at 37° C. for 10 days in Dulbecco's modified Eagle's medium (DMEM) with 20% fetal calf serum (Invitrogen). A2B5^+ OPCs were collected by shaking the flask overnight at 200 rpm and 37° C., resulting in a 95% pure population.
For the differentiation assay, 2 μM and 20 μM antagonist or the same concentrations of vehicle (DMSO) were applied to OPCs cultured in CNTF/T3 containing media. After a 3-day incubation, after a 3-day incubation, cell were lysed and then subjected to MSD (Meso Scale Discovery-R) analysis. EC50 was calculated by Prism using a nonlinear sigmoidal dose-response curve cells. Alternatively, cells were lysed in 80 μL lysis buffer (50 mM HEPES [4-(2-hydroxyethyl)-1-piperazine ethanesulfonic acid], pH 7.5, 150 mM NaCl, 1.5 mM MgCl2, 1 mM ethylene glycol tetraacetic acid [EGTA], 1% Triton X-100 and 10% glycerol) for 30 minutes at 4° C. After centrifugation at 14,000 g for 15 minutes, the supernatants were boiled in Laemmli sample buffer, subjected to 4-20% SDS-PAGE, and analyzed by Western blotting with anti-MBP, anti-myelin-associated glycoprotein (MAG), or anti-beta actin antibodies. The secondary antibodies used were anti-mouse IgG-HRP (horseradish peroxidase) and anti-rabbit IgG-HRP respectively.

| SMILES | minimal effective concentration [µM] |
| --- | --- |
| CC(C)(C)[C@H]1CC[C@H](Oc2ccc(-c3cccc(CNC4CC(C(=O)O)C4)c3)cc2)CC1 (stereo partly drawn) [Example 10, 3-(((4′-((trans-4-(tert-Butyl)cyclohexyl)oxy)-[1,1′-biphenyl]-3-yl)methyl)amino)cyclobutanecarboxylic acid] | 0.5 to 5 |
| CC(C)[C@H]1CC[C@H](Oc2ccc(-c3cccc(CN4CCCC(C(=O)O)C4)c3F)cc2)CC1 (some centres unmarked) [Example 139, 1-((2-fluoro-4′-(((1r,4r)-4-isopropylcyclohexyl)oxy)-[1,1′-biphenyl]-3-yl)methyl)piperidine-3-carboxylic acid] | 0.5 to 5 |
| O=C(O)C1CCN(Cc2cccc(-c3ccc(OC4CCC5(CCCC5)CC4)cc3)c2F)C1 (centres unmarked) [Example 114, 1-((2-fluoro-4′-(spiro[4.5]decan-8-yloxy)-[1,1′-biphenyl]-3-yl)methyl)pyrrolidine-3-carboxylic acid] | 0.5 to 5 |
| CC(C)(C)[C@H]1CC[C@H](Oc2ccc(-c3csc(CNCCC(=O)O)n3)cc2)CC1 [Example 62, 3-(((4-(4-((trans-4-(tert-Butyl)cyclohexyl)oxy)phenyl)thiazol-2-yl)methyl)amino)propanoic acid] | 0.5 to 5 |
| CC(C)(C)[C@H]1CC[C@H](Oc2cccc(-c3cccc(CNCCC(=O)O)c3)c2)CC1 [Example 4, 3-(((3′-((trans-4-(tert-Butyl)cyclohexyl)oxy)-[1,1′-biphenyl]-3-yl)methyl)amino)propanoic acid] | 0.5 to 5 |
| O=C(O)C1CCCN(Cc2cccc(-c3ccc(OC4CCC5(CCCC5)CC4)cc3)c2F)C1 (centres unmarked) [Example 115, 1-((2-fluoro-4′-(spiro[4.5]decan-8-yloxy)-[1,1′-biphenyl]-3-yl)methyl)piperidine-3-carboxylic acid] | 0.5 to 5 |
| O=C(O)C1CCN(Cc2cccc(-c3ccc(OC4CCC5(CCC5)CC4)cc3)c2F)C1 (centres unmarked) [Example 106, 1-((2-fluoro-4′-(spiro[3.5]nonan-7-yloxy)-[1,1′-biphenyl]-3-yl)methyl)pyrrolidine-3-carboxylic acid] | 0.5 to 5 |
| CC(C)(C)[C@H]1CC[C@H](Oc2ccc(-c3ccc(CNCCC(=O)O)cc3)cc2)CC1 [Example 24, 3-((4′-(trans-4-tert-Butylcyclohexyloxy)biphenyl-4-yl)methylamino)propanoic acid] | 0.5 to 5 |
| CC(C)(C)[C@H]1CC[C@H](Oc2ccc(-c3cccc(CNCCC(=O)O)c3F)cc2)CC1 [Example 95] | 0.5 to 5 |
| CC(C)[C@H]1CC[C@H](Oc2ccc(-c3cccc(CN4CCC(C(=O)O)CC4)c3F)cc2)CC1 [Example 140, 1-((2-fluoro-4′-(((1r,4r)-4-isopropylcyclohexyl)oxy)-[1,1′-biphenyl]-3-yl)methyl)piperidine-4-carboxylic acid] | 0.5 to 5 |
| CC(C)[C@H]1CC[C@H](Oc2ccc(-c3cccc(CN4CCC(C(=O)O)C4)c3F)cc2)CC1 (some centres unmarked) [Example 138, 1-((2-fluoro-4′-(((1r,4r)-4-isopropylcyclohexyl)oxy)-[1,1′-biphenyl]-3-yl)methyl)pyrrolidine-3-carboxylic acid] | 0.5 to 5 |
| CC(C)(C)[C@H]1CC[C@H](Oc2ccc(-n3cc(CN4CCC(C(=O)O)CC4)nn3)cc2)CC1 [Example 93, 1-((1-(4-(trans-4-tert-Butylcyclohexyloxy)phenyl)-1H-1,2,3-triazol-4-yl)methyl)piperidine-4-carboxylic acid] | 0.5 to 5 |

Target: T1, S1P4 (Homo sapiens, UniProt O95977)
T1 sequence (O95977 1-384): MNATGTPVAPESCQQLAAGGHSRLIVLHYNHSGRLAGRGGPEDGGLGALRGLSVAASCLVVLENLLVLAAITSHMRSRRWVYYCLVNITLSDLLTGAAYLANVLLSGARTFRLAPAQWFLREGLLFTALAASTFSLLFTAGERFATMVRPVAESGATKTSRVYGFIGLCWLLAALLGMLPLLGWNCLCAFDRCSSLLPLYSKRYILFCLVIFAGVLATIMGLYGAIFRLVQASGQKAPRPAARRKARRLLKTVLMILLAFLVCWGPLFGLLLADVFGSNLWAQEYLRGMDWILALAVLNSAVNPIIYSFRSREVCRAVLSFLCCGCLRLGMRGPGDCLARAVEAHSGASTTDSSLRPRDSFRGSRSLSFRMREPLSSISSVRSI
Assay: S1P receptor calcium flux assay, agonist format (S1P4)
Format: cell-based
Settings: FLIPR TETRA
Text: as §1

| S1P4 agonist activity EC50 [nM] | SMILES |
| --- | --- |
| 1 to 5000 | CC(C)(C)[C@H]1CC[C@H](n2nc(-c3cccc(CNCCC(=O)O)c3)ccc2=O)CC1 [Example 48, 3-((3-(1-(trans-4-(tert-butyl)cyclohexyl)-6-oxo-1,6-dihydropyridazin-3-yl)benzyl)amino)propanoic acid] |
